Source: patent US20210393645A1, “TREATMENT FOR PROGRESSIVE MULTIPLE SCLEROSIS” (UTI LIMITED PARTNERSHIP, priority 2016, published 2021)
Where a name gives a salt, the structure may show the parent alone.

test system: human neurons; experiment: Iron (FeSO4) mediated neurotoxicity screening, MAP-2 positive neurons counted; type: cell-based; settings: not given
Protocol: Human neurons were isolated from brain tissues of therapeutically aborted 15-20 week old fetuses, in accordance with ethics approval of the University of Calgary ethics committee, after written informed consent of the pregnant donors. Neurons were isolated as previously described (Vecil et al., 2000) brain specimens were washed in phosphate buffered saline (PBS) to remove blood, followed by removal of meninges. […] Thereafter, the digestion was stopped by addition of 4 ml fetal calf serum (FCS). […] Cells were cultured in feeding medium of minimal essential medium (MEM) supplemented with 10% fetal bovine serum (FBS), 1 μM sodium pyruvate, 10 μM glutamine, 1× non-essential amino acids, 0.1% dextrose and 1% penicillin/streptomycin (all culture supplements from Invitrogen, Burlington, Canada). […] For experiments, the neuron-enriched cultures were retrypsinized and cells were plated in poly-L-ornithine pre-coated 96-well plates at a density of 100,000 cells/well in 100 μl of the complete medium supplemented with cytosine arabinoside. […] All conditions were performed in quadruplicates. A day later cells were fixed using 4% paraformaldehyde (PFA) and stored in PBS in 4° C.
Briefly, there were 80 compounds located in specific wells on each plate (e. g. B07). […] Each compound was supplied at a concentration of 10 mM dissolved in DMSO.
After filtering with a 0.2 μm filter, FeSO4 was added to cells in a final concentration of 25-50 μM in a volume of 50 μl medium to the cells. Rotenone was dissolved in dimethyl sulfoxide (DMSO) and used in a final concentration of 10 μM.
Staining was performed at room temperature. A blocking buffer was first introduced for 1 h followed by incubation with primary antibody overnight in 4° C.
Cell nuclei were stained with Hoechst S769121 (nuclear yellow). Cells were stored in 4° C. in the dark before imaging.
Images were taken using the automated ImageXpress® imaging system (Molecular Devices, Sunnyvale, Calif.) through a 10x objective microscope lens, displaying 4 or 9 sites per well. […] Cells were defined according to fluorescence intensity and size at different wavelengths. Data from all sites per well were averaged to one data point.
Neurons were pre-incubated with each compound for 1 h followed by application of FeSO4.

Q: `N[C@@H]1C[C@H]1c1ccccc1.N[C@H]1C[C@@H]1c1ccccc1.O=S(=O)(O)O` [TRANYLCYPROMINE SULFATE] was tested. Which “Drug % control (mean): number of neurons normalized to untreated control” value did it give?
A: 21.59%

same assay, conditions: Homo sapiens, Neuron, 24 h, read-out: Drug % control (mean): number of neurons normalized to untreated control

Q: Which viability at 10 µM does the source give for `CC(C)C[C@H](CN)CC(=O)O` [PREGABALIN] here?
A: 47.8%

Q: Which viability at 10 µM does the source give for `COc1cc(NC(C)CCCN)c2ncccc2c1` (centres unmarked) [PRIMAQUINE DIPHOSPHATE] here?
A: 89.1%

Q: `CO[C@H]1/C=C/O[C@@]2(C)Oc3c(C)c(O)c4c(O)c(c(/C=N/N5CCN(C)CC5)c(O)c4c3C2=O)NC(=O)/C(C)=C\C=C\[C@H](C)[C@H](O)[C@@H](C)[C@@H](O)[C@@H](C)[C@H](OC(C)=O)[C@@H]1C` [RIFAMPIN] was tested. Which viability at 10 µM did it give?
A: 95.5%

Q: Which viability at 10 µM does the source give for `Cn1c(=O)c2[nH]cnc2n(C)c1=O` [THEOPHYLLINE] here?
A: 23.3%

same assay, conditions: Homo sapiens, Neuron; drug 10 μM 1 h before FeSO4 25 or 50 μM; MAP-2 neurons after 24 h; read-out: Drug % control (mean): number of neurons normalized to untreated control

Q: `CN(C)C(=O)Oc1cccc([N+](C)(C)C)c1` [NEOSTIGMINE BROMIDE] was tested. Which viability at 10 µM did it give?
A: 44.8%

Q: `CC1(C)NC(=O)N(c2ccc([N+](=O)[O-])c(C(F)(F)F)c2)C1=O` [NILUTAMIDE] was tested. Which viability at 10 µM did it give?
A: 48.7%

Q: For `COCCOC(=O)C1=C(C)NC(C)=C(C(=O)OC(C)C)C1c1cccc([N+](=O)[O-])c1` (centres unmarked) [NIMODIPINE], which viability at 10 µM is on record?
A: 62.8%

Q: How did the viability at 10 µM turn out when `O=C1CN(/N=C/c2ccc([N+](=O)[O-])o2)C(=O)N1` [NITROFURANTOIN] was run?
A: 17.8%

Q: For `CCn1cc(C(=O)O)c(=O)c2cc(F)c(N3CCNCC3)cc21` [NORFLOXACIN], which viability at 10 µM is on record?
A: 13.6%

Q: For `CC(CCc1ccccc1)NC(C)C(O)c1ccc(O)cc1` (centres unmarked) [NYLIDRIN HYDROCHLORIDE], which viability at 10 µM is on record?
A: 50.1%

Q: With `CCCCCCCCCCC[C@@H](C[C@@H]1OC(=O)[C@H]1CCCCCC)OC(=O)[C@H](CC(C)C)NC=O` [ORLISTAT] as the molecule, how does the viability at 10 µM read?
A: 1%

Q: For `Cc1ccccc1C(OCCN(C)C)c1ccccc1` (centres unmarked) [ORPHENADRINE CITRATE], which viability at 10 µM is on record?
A: 54.5%

Q: With `NC(=O)N1c2ccccc2CC(=O)c2ccccc21` [OXCARBAZEPINE] as the molecule, how does the viability at 10 µM read?
A: 38.2%

Q: For `NC[C@@H]1O[C@H](O[C@H]2[C@@H](O)[C@H](O[C@@H]3[C@@H](O)[C@H](N)C[C@H](N)[C@H]3O[C@H]3O[C@H](CO)[C@@H](O)[C@H](O)[C@H]3N)O[C@@H]2CO)[C@H](N)[C@@H](O)[C@@H]1O` [PAROMOMYCIN SULFATE], which viability at 10 µM is on record?
A: 35.3%

Q: Which viability at 10 µM does the source give for `CC(=O)CCCCn1c(=O)c2c(ncn2C)n(C)c1=O` [PENTOXIFYLLINE] here?
A: 66.5%

Q: Which viability at 10 µM does the source give for `CCC[C@H](N[C@@H](C)C(=O)N1[C@H](C(=O)O)C[C@@H]2CCCC[C@@H]21)C(=O)OCC` [PERINDOPRIL ERBUMINE] here?
A: 49.4%

Q: How did the viability at 10 µM turn out when `OCCN1CCN(CCCN2c3ccccc3Sc3ccc(Cl)cc32)CC1` [PERPHENAZINE] was run?
A: 78.8%

Q: `Nc1ccc(/N=N/c2ccccc2)c(N)n1` [PHENAZOPYRIDINE HYDROCHLORIDE] was tested. Which viability at 10 µM did it give?
A: 101%

Q: With `NNCCc1ccccc1` [PHENELZINE SULFATE] as the molecule, how does the viability at 10 µM read?
A: 46.7%

Q: With `O=C1NC(=O)C(c2ccccc2)(c2ccccc2)N1` [PHENYTOIN SODIUM] as the molecule, how does the viability at 10 µM read?
A: 30.1%

Q: How did the viability at 10 µM turn out when `CC(C)NCC(O)COc1cccc2[nH]ccc12` (centres unmarked) [PINDOLOL] was run?
A: 62.6%

Q: Which viability at 10 µM does the source give for `CCc1ccc(CCOc2ccc(CC3SC(=O)NC3=O)cc2)nc1` (centres unmarked) [PIOGLITAZONE HYDROCHLORIDE] here?
A: 84.6%

Q: Which viability at 10 µM does the source give for `CN1C(C(=O)Nc2ccccn2)=C(O)c2ccccc2S1(=O)=O` [PIROXICAM] here?
A: 36.2%

Q: For `Nc1ccc(C(=O)O)cc1` [POTASSIUM p-AMINOBENZOATE], which viability at 10 µM is on record?
A: 44.5%

Q: With `CC[C@H](C)C(=O)O[C@H]1C[C@H](O)C=C2C=C[C@H](C)[C@H](CC[C@@H](O)C[C@@H](O)CC(=O)O)[C@H]21` [PRAVASTATIN SODIUM] as the molecule, how does the viability at 10 µM read?
A: 40.5%

Q: `CCC1(c2ccccc2)C(=O)NCNC1=O` [PRIMIDONE] was tested. Which viability at 10 µM did it give?
A: 45.2%

Q: With `CCCN(CCC)S(=O)(=O)c1ccc(C(=O)O)cc1` [PROBENECID] as the molecule, how does the viability at 10 µM read?
A: 71.5%

Q: Which viability at 10 µM does the source give for `CCN(CC)CCNC(=O)c1ccc(N)cc1` [PROCAINAMIDE HYDROCHLORIDE] here?
A: 64.3%

Q: With `CN1CCN(CCCN2c3ccccc3Sc3ccc(Cl)cc32)CC1` [PROCHLORPERAZINE EDISYLATE] as the molecule, how does the viability at 10 µM read?
A: 4.88%

Q: Which viability at 10 µM does the source give for `OC(CCN1CCCC1)(c1ccccc1)C1CCCCC1` (centres unmarked) [PROCYCLIDINE HYDROCHLORIDE] here?
A: 95.6%

Q: Which viability at 10 µM does the source give for `CCCNCC(O)COc1ccccc1C(=O)CCc1ccccc1` (centres unmarked) [PROPAFENONE HYDROCHLORIDE] here?
A: 51.3%

Q: `CCCc1cc(=O)[nH]c(=S)[nH]1` [PROPYLTHIOURACIL] was tested. Which viability at 10 µM did it give?
A: 35.9%

Q: With `CN[C@@H](C)[C@@H](O)c1ccccc1` [PSEUDOEPHEDRINE HYDROCHLORIDE] as the molecule, how does the viability at 10 µM read?
A: 26.7%

Q: Which viability at 10 µM does the source give for `NC(=O)c1cnccn1` [PYRAZINAMIDE] here?
A: 67.2%

Q: With `CN(C)C(=O)Oc1ccc[n+](C)c1` [PYRIDOSTIGMINE BROMIDE] as the molecule, how does the viability at 10 µM read?
A: 35.8%

Q: With `CCOC(=O)[C@H](CCc1ccccc1)N[C@@H](C)C(=O)N1Cc2ccccc2C[C@H]1C(=O)O` [QUINAPRIL HYDROCHLORIDE] as the molecule, how does the viability at 10 µM read?
A: 41.5%

Q: How did the viability at 10 µM turn out when `C=C[C@H]1C[N@@]2CC[C@H]1C[C@H]2[C@H](O)c1ccnc2ccc(OC)cc12` [QUININE SULFATE] was run?
A: 21.3%

Q: How did the viability at 10 µM turn out when `CNC(=C[N+](=O)[O-])NCCSCc1ccc(CN(C)C)o1` [RANITIDINE] was run?
A: 40.2%

Q: `CO[C@H]1/C=C/O[C@@]2(C)Oc3c(C)c(O)c4c(O)c(c5c(nc6cc(C)ccn65)c4c3C2=O)NC(=O)/C(C)=C\C=C\[C@H](C)[C@H](O)[C@@H](C)[C@@H](O)[C@@H](C)[C@H](OC(C)=O)[C@@H]1C` [RIFAXIMIN] was tested. Which viability at 10 µM did it give?
A: 53.8%

Q: With `CN(CCOc1ccc(CC2SC(=O)NC2=O)cc1)c1ccccn1` (centres unmarked) [ROSIGLITAZONE] as the molecule, how does the viability at 10 µM read?
A: 77.6%

Q: With `CC(C)c1nc(N(C)S(C)(=O)=O)nc(-c2ccc(F)cc2)c1/C=C/[C@@H](O)C[C@@H](O)CC(=O)O` [ROSUVASTATIN] as the molecule, how does the viability at 10 µM read?
A: 35.4%

Q: With `CC(=O)S[C@@H]1CC2=CC(=O)CC[C@]2(C)[C@H]2CC[C@@]3(C)[C@@H](CC[C@@]34CCC(=O)O4)[C@H]12` [SPIRONOLACTONE] as the molecule, how does the viability at 10 µM read?
A: 37.1%

Q: With `Cc1cc(NS(=O)(=O)c2ccc(N)cc2)no1` [SULFAMETHOXAZOLE] as the molecule, how does the viability at 10 µM read?
A: 16.2%

Q: Which viability at 10 µM does the source give for `O=C1C(CC[S+]([O-])c2ccccc2)C(=O)N(c2ccccc2)N1c1ccccc1` (centres unmarked) [SULFINPYRAZONE] here?
A: 46.5%

Q: With `Cc1noc(NS(=O)(=O)c2ccc(N)cc2)c1C` [SULFISOXAZOLE] as the molecule, how does the viability at 10 µM read?
A: 38.3%

Q: How did the viability at 10 µM turn out when `CN(C)[C@@H]1C(O)=C(C(N)=O)C(=O)[C@@]2(O)C(O)=C3C(=O)c4c(O)cccc4[C@@](C)(O)[C@H]3C[C@@H]12` [TETRACYCLINE HYDROCHLORIDE] was run?
A: 25%

Q: How did the viability at 10 µM turn out when `Nc1nc2nc[nH]c2c(=S)[nH]1` [THIOGUANINE] was run?
A: 21.7%

Q: Which viability at 10 µM does the source give for `CC(C)(C)NC[C@H](O)COc1nsnc1N1CCOCC1` [TIMOLOL MALEATE] here?
A: 11.1%

Q: `CCCCNC(=O)NS(=O)(=O)c1ccc(C)cc1` [TOLBUTAMIDE] was tested. Which viability at 10 µM did it give?
A: 9.09%

Q: `Cc1c(Cl)cccc1Nc1ccccc1C(=O)O` [TOLFENAMIC ACID] was tested. Which viability at 10 µM did it give?
A: 40.3%

Q: With `CC1(C)O[C@@H]2[C@@H](CO[C@@]3(COS(N)(=O)=O)OC(C)(C)O[C@@H]23)O1` [TOPIRAMATE] as the molecule, how does the viability at 10 µM read?
A: 46.1%

Q: How did the viability at 10 µM turn out when `CCOC(=O)[C@H](CCc1ccccc1)N[C@@H](C)C(=O)N1[C@H](C(=O)O)C[C@H]2CCCC[C@@H]21` [TRANDOLAPRIL] was run?
A: 72.3%

Q: `NC[C@H]1CC[C@H](C(=O)O)CC1` [TRANEXAMIC ACID] was tested. Which viability at 10 µM did it give?
A: 36.3%

same assay, conditions: drug 10 μM 1 h before FeSO4 25 or 50 μM; MAP-2 neurons after 24 h

Q: With `COc1ccc2cc([C@H](C)C(=O)O)ccc2c1` [NAPROXEN(+)] as the molecule, how does the “Drug % control (mean): number of neurons normalized to untreated control” value read?
A: 25.64%

Q: `CCCc1nc(C(C)(C)O)c(C(=O)OCc2oc(=O)oc2C)n1Cc1ccc(-c2ccccc2-c2nnn[nH]2)cc1` [OLIVEESARTAN MEDOXOMIL] was tested. Which “Drug % control (mean): number of neurons normalized to untreated control” value did it give?
A: 55.85%
